In data set [1] the test system is Plasmodium yoelii nigeriensis. Kind of data set: Antimalarial activity against Plasmodium yoelii nigeriensis infected Swiss mice (Mus musculus) at 24 mg/kg peroral dose over 4 days. The format is functional. The conditions noted are these: route oral.
For data set [2], the system named is Mus musculus. In words: Survival of Swiss mice (Mus musculus) infected with Plasmodium yoelii nigeriensis at 96 mg/kg, peroral after 28 days. The format is functional, organism-based. On the set-up: dose 96 mg/kg.
The subject of data set [3] is Plasmodium yoelii nigeriensis. In words: Antimalarial activity against Plasmodium yoelii nigeriensis infected Swiss mice (Mus musculus) at 96 mg/kg intramuscular dose over 4 days. The format is functional.
In data set [4] the test system is Plasmodium yoelii nigeriensis. Kind of data set: Antimalarial activity at day 4 against Plasmodium yoelii nigeriensis infected in Swiss mice (Mus musculus) at 96 mg/kg peroral dose. It counts as functional. The conditions noted are these: route oral.
In data set [5] the test system is Plasmodium cynomolgi. Kind of data set: Antimalarial activity against Plasmodium cynomolgi infected Rhesus monkey at 10 mg/kg peroral dose over 4 days. It counts as functional. As to conditions: route oral.
The subject of data set [6] is Plasmodium yoelii nigeriensis. In words: Antimalarial activity against Plasmodium yoelii nigeriensis infected Swiss mice (Mus musculus) at 48 mg/kg peroral dose over 4 days. The format is functional. The conditions noted are these: route oral.
Data set [7] deals with Plasmodium cynomolgi. Kind of data set: Antimalarial activity against Plasmodium cynomolgi infected Rhesus monkey at 20 mg/kg peroral dose after 5 days. The format is functional. The conditions noted are these: route oral.
Data set [8] can be described thus: Partition coefficient, log P of the compound. It counts as physicochemical. The conditions noted are these: octanol/water.
The test system of data set [9] is Plasmodium cynomolgi. In words: Antimalarial activity against Plasmodium cynomolgi infected Rhesus monkey at 10 mg/kg intramuscular dose over 4 days. It counts as functional, organism-based. On the set-up: dose 10 mg/kg.
Data set [10] concerns Mus musculus. Kind of data set: Survival of Swiss mice (Mus musculus) infected with Plasmodium yoelii nigeriensis at 48 mg/kg, peroral after 28 days. On the set-up: dose 48 mg/kg. It counts as functional, organism-based.
Data set [11] relates to Mus musculus. In words: Survival of Swiss mice (Mus musculus) infected with Plasmodium yoelii nigeriensis at 96 mg/kg, intramuscular after 28 days. The format is functional, organism-based. Set-up: dose 96 mg/kg.
The test system of data set [12] is Mus musculus. Kind of data set: Survival of Swiss mice (Mus musculus) infected with Plasmodium yoelii nigeriensis at 24 mg/kg, peroral after 28 days. Set-up: dose 24 mg/kg. It counts as functional, organism-based.

The source made the active and inactive calls. The calls are words filed in the database; no cut-off is given here.

In the case of `C=C(c1ccc2c(c1)Cc1ccccc1-2)C1COC2(OO1)C1CC3CC(C1)CC2C3` (stereo not drawn), the Activity (in data set [1]; in data set [3]; in data set [4]; in the data set with Plasmodium cynomolgi [5]; in [6]; in the data set on Plasmodium cynomolgi [7]) was 100% throughout. The outcome in the data set on Mus musculus [2] and in the data set on Mus musculus [10] was Active. The same compound yielded a lipophilicity (logP) in [8] of 6.39. For the same compound, in the data set with Plasmodium cynomolgi [9], the outcome was inactive.

In the case of `C=C(C1COC2(CCCCC2)OO1)C12CC3CC(CC(C3)C1)C2` (stereo not drawn), the result in the data set on Mus musculus [2] and in the data set with Mus musculus [11] was inactive. The compound further came in with an Activity in data set [4] of 52%. Besides, the lipophilicity (logP) in data set [8] is 4.79.

For `C[C@H]1[C@H](OC(=O)CCC(=O)O)O[C@@H]2O[C@@]3(C)CC[C@H]4[C@H](C)CC[C@@H]1[C@@]24OO3` [ARTESUNATE], the Activity in [1] and in [6] was 100% throughout. The result with Mus musculus [12] was inactive. In [8], this compound had a logP of 3.04. Also, in the data set with Mus musculus [10], the outcome was Active.

As to `CCO[C@H]1O[C@@H]2O[C@@]3(C)CC[C@H]4[C@H](C)CC[C@@H]([C@H]1C)[C@@]24OO3` [ARTEMOTIL], the Activity in [1] and in [6] was 100% throughout. Further, the outcome in the data set on Mus musculus [10] was Active.

As to `C=C(C1COC2(CCCC2)OO1)C12CC3CC(CC(C3)C1)C2` (stereo not drawn), the outcome in the data set with Mus musculus [2] and in the data set on Mus musculus [11] was inactive. In addition, the Activity in [3] is 38%; in [4], 57%. Moreover, the logP in [8] was 4.38.

Take `C=C(c1ccc2c(c1)CCCC2)C1COC2(OO1)C1CC3CC(C1)CC2C3` (stereo not drawn): the result in the data set on Mus musculus [2] was Active. The Activity in data set [3], in data set [4] and in data set [6] was 100% each time. The lipophilicity (logP) in data set [8] is 5.96.

With `C=C(c1ccc2c(ccc3ccccc32)c1)C1COC2(OO1)C1CC3CC(C1)CC2C3` (stereo not drawn), the Activity in data set [3], in [4] and in data set [6] was 100% throughout. Besides, the log partition coefficient (logP) in [8] was 6.65.

With `C=C(c1cccc2ccccc12)C1COC2(OO1)C1CC3CC(C1)CC2C3` (stereo not drawn), the result in the data set with Mus musculus [2] was Active. In addition, the Activity in data set [3] is listed as 87%; in [4] it was 100%; in data set [6] it was 100%. The same compound registered a lipophilicity (logP) in data set [8] of 5.65. The outcome in the data set on Mus musculus [11] was inactive.

For `C=C(c1ccc2ccc3ccccc3c2c1)C1COC2(OO1)C1CC3CC(C1)CC2C3` (stereo not drawn), in the data set with Mus musculus [2], the result was Active. The values for the Activity in data set [3], in [4] and in data set [6] were 69%, 100% and 100%, respectively. The compound further yielded a logP in data set [8] of 6.65. In addition, the result with Mus musculus [11] was inactive.

In the case of `C=C(c1ccccc1)C1COC2(OO1)C1CC3CC(C1)CC2C3` (stereo not drawn), the outcome in the data set on Mus musculus [2] and in the data set with Mus musculus [11] was inactive. Besides, the Activity in [3] was found to be 97%; in [4], 99%. The same compound registered a log partition coefficient (logP) in data set [8] of 4.65.

As for `C=C(c1ccc2ccccc2c1)C1COC2(OO1)C1CC3CC(C1)CC2C3` (stereo not drawn), the Activity in data set [3] is reported as 71%; in data set [4], 100%; in data set [6] it was 100%. The same compound returned a logP in [8] of 5.65. The outcome in the data set with Mus musculus [11] was inactive.

`C=C(C1COC2(OO1)C1CC3CC(C1)CC2C3)C12CC3CC(CC(C3)C1)C2` (stereo not drawn): the result in the data set with Mus musculus [2] and in the data set on Mus musculus [11] was inactive. Also, the Activity is on record as 14% in [3] and 70% in [4]. This compound also displayed a logP in data set [8] of 5.43.

The values above are taken from ChEMBL document CHEMBL1141403, “New adamantane-based spiro 1,2,4-trioxanes orally effective against rodent and simian malaria” (J Med Chem, 2007).
